Test results: ChEMBL document CHEMBL1134195, “Synthesis of analogues of the O-beta-D-ribofuranosyl nucleoside moiety of liposidomycins. Part 2: role of the hydroxyl groups upon the inhibition of MraY” (Bioorg Med Chem Lett, 2001)

Experiment: Inhibitory activity against translocase (Mra Y) obtained from bacteria.

## NC[C@H]1O[C@@H](OC[C@H]2O[C@@H](n3ccc(=O)[nH]c3=O)C[C@@H]2O)[C@H](O)[C@@H]1O
  IC50: 80 µM

## NC[C@H]1O[C@@H](OC[C@@H]2CC[C@H](n3ccc(=O)[nH]c3=O)O2)[C@H](O)[C@@H]1O
  IC50: 120 µM

## NC[C@H]1O[C@@H](OC[C@@H]2C[C@@H](O)[C@H](n3ccc(=O)[nH]c3=O)O2)[C@H](O)[C@@H]1O
  IC50: 10 µM

## NC[C@H]1O[C@@H](OC[C@H]2O[C@@H](n3ccc(=O)[nH]c3=O)[C@H](O)[C@@H]2O)C[C@@H]1O
  IC50: 115 µM

## NC[C@H]1O[C@@H](OC[C@H]2O[C@@H](n3ccc(=O)[nH]c3=O)[C@H](O)[C@@H]2O)[C@H](O)[C@@H]1O
  IC50: 50 µM

## NC[C@H]1O[C@@H](O[C@@H](CO)[C@H]2O[C@@H](n3ccc(=O)[nH]c3=O)[C@H](O)[C@@H]2O)[C@H](O)[C@@H]1O
  IC50: 5 µM

## NC[C@@H]1C[C@@H](O)[C@H](OC[C@H]2O[C@@H](n3ccc(=O)[nH]c3=O)[C@H](O)[C@@H]2O)O1
  IC50: > 1000 µM
